{"source": "patent US9687477B2", "about": "(priority 2011, dated 2017)", "key": {"[1]": {"tested_on": "Influenza A/WSN/33 virus (H1N1)", "assay": "microbe, parasite or virus in culture", "format": "cell-based", "conditions": "read-out: EC50 (50% efficacy concentration that blocks virus production)"}, "RanBP3": {"tested_on": "RanBP3", "assay": "Influenza virus-induced phosphorylation of RanBP3 in MDCK cells (Western blot)", "format": "cell-based, canine", "conditions": "5 MOI, 5 μM", "method": "FIG. 11 (Panels A-E) set forth data illustrating critical role of RanBP3 in influenza virus replication and RanBP3 regulation by SK inhibitor. (A-B) MDCK cells were infected with influenza virus at 5 MOI and treated with VEH or DMS (5 μM). Cell lysates were obtained at the indicated time points and the expression of pRanBP3 was assessed by Western blot analysis. Relative expression of pRanBP3 is shown in panel B. (C-E) HEK293 cells were transfected with control siRNA (siCTR) or siRNA targeting RanBP3 (siRanBP3). Western blotting was performed to detect RanBP3 and pRanBP3 (C). Cells were transfected with siRNA and then infected with influenza virus at 0.001 MOI. Virus titers were determined by using a plaque assay (D). Cells were transfected with siRNA and then infected with influenza virus at 1 MOI for 12 hrs. Immunocytochemistry followed by confocal microscopic analysis was performed to detect influenza viral NP (E).\n(§1) Specific antibodies against actin, influenza viral protein NP, NS1, NS2, M1, M2, Bax, Bcl-2, PARP, STAT1, pSTAT1, STAT2, pSTAT2, ERK, pERK, p38, p-p38, Akt, pAkt, JNK, pJNK, RanBP3, pRanBP3, p-p90RSK, and FLAG for SPL and SK1 were purchased from Cell Signaling Technology, Abcam, Upstate, or Santa Cruz Biotechnology. […] Membrane-bound antibodies were detected by enhanced chemiluminescence (Pierce). […]"}, "ERK signaling pathway": {"tested_on": "ERK signaling pathway", "assay": "Influenza virus-induced activation of ERK MAP kinase signal in MDCK cells (Western blot)", "format": "cell-based, canine", "conditions": "3 MOI, 5 μM", "method": "FIG. 12 (Panels A-C) set forth data illustrating reduced activation of ERK MAP kinase signal by SK inhibitor treatment upon influenza virus infection. (A). MDCK cells were treated with VEH or DMS (5 μM) and infected with influenza virus at 3 MOI. Cell lysates were obtained at the indicated time points and the expression of ERK MAP kinase signaling components were assessed by Western blot analysis. Relative expression of pERK and p90RSK is shown in panels B and C respectively (dotted line, VEH treated; solid line, DMS treated).\n(§2) Specific antibodies against actin, influenza viral protein NP, NS1, NS2, M1, M2, Bax, Bcl-2, PARP, STAT1, pSTAT1, STAT2, pSTAT2, ERK, pERK, p38, p-p38, Akt, pAkt, JNK, pJNK, RanBP3, pRanBP3, p-p90RSK, and FLAG for SPL and SK1 were purchased from Cell Signaling Technology, Abcam, Upstate, or Santa Cruz Biotechnology. Total proteins were extracted by a RIPA buffer supplemented with inhibitors blocking proteases and phosphatases, and then normalized by using a Bradford assay. The protein samples (20 μg each) were run on a 12% SDS-PAGE gel and transferred to a PROTRAN-NC (Whatman). Membrane-bound antibodies were detected by enhanced chemiluminescence (Pierce). All of the presented data were repeated with independent experimental settings, at least twice."}, "influenza virus [2]": {"tested_on": "influenza virus", "assay": "Survival and weight loss of influenza virus-infected mice treated with SK inhibitor", "format": "in vivo, C57BL/6 mice", "method": "FIG. 8 (Panels A-B) set forth data illustrating reduced mortality of influenza virus-infected mice by SK inhibitor treatment. (A) Wild-type C57BL/6 mice (n=5/group) were infected in vivo with influenza virus at 10^5 plaque forming unit (PFU) intra-nasally (i.n.) and injected with vehicle (control, CTR) or DMS {0.1 mg/kg (mpk)} and their lifespan was monitored. (B) Mice were infected with 5×10^4 PFU of influenza virus and then treated with vehicle (control, CTR), DMS (0.003 mpk) or SKI-II (0.012 mpk) via intranasal inoculation. Survival of the infected mice was monitored daily for 14 days.\nRefer to FIGS. 8A and 8B. Wild-type C57BL/6 mice (n=5/group) were infected in vivo with influenza virus at 10^5 PFU intra-nasally (i.n.) and injected with vehicle (CTR) or DMS {0.1 mg/kg (mpk)} and their lifespan was monitored."}, "influenza virus [3]": {"tested_on": "influenza virus", "assay": "Viral NP in influenza virus-infected HEK-cells treated with sphingolipids (Western blot)", "format": "cell-based, Influenza A/WSN/33 virus (H1N1)", "conditions": "1 MOI, 1 μM, 2 dpi", "method": "FIG. 6 (Panels A-D) set forth data illustrating the enhanced susceptibility of SK1-cells to influenza virus infection. (A) HEK-cells (open triangle) or SK1-cells (filled square) were infected with influenza virus at 0.1 MOI. At 12, 18 or 48 hpi, virus titers were determined by plaque assay. n=3 separate virus-infected cells per group at each time point; Mean±SEM. (B) Western blot analysis was conducted at 2 dpi to detect viral NP and actin. (C) Cell lysates were used for Western blot analysis to detect STAT1, pSTAT1 and actin. (D) HEK-cells were infected with influenza virus at 1 MOI and treated with solvent controls, FTY720 (1 μM), D-erythro-sphingosine (1 μM) or S1P (1 μM). At 2 dpi, total proteins were extracted to detect viral NP and actin by Western blot analysis.\nas §2\nFTY720, D-erythro-sphingosine, and S1P were purchased from Cayman Chemicals. HEK-cells were infected with influenza virus and simultaneously treated with FTY720 (1 μM), D-erythro-sphingosine (1 μM), or its solvent (1% DMSO). Similarly, virus-infected cells were treated with S1P (1 μM) or its solvent (3 mM NaOH). These experiments were repeated two more times, with similar results."}, "[4]": {"tested_on": "Measles virus (Edmonston strain)", "format": "cell-based"}, "influenza virus [5]": {"tested_on": "influenza virus", "assay": "JAK inhibitor / STAT1 inhibitor assay: viral NP in infected HEK- and SPL-cells", "format": "cell-based, Influenza A/WSN/33 virus (H1N1)", "conditions": "1 MOI, treated at 2 hpi, 10 μM, after 2 days", "excerpt": "FIG. 4 (Panels A-E) set forth data illustrating the analyses for the activation of JAK/STAT following influenza virus infection of SPL-cells. HEK-cells or SPL-cells were uninfected or infected with influenza virus at 1 MOI. (A) At 1 dpi, cell lysates were used for Western blot analysis to detect STAT1, pSTAT1, STAT2, pSTAT2 and actin. (B) At 0, 12 or 18 hpi, whole proteins were extracted and then used for Western blot analysis to detect STAT1, pSTAT1 and actin. (C) HEK- or SPL-cells were pre-treated with fludarabine (1 μM) blocking STAT1 expression, and at 2 dpi, the expression of viral NP and actin was analyzed. (D) HEK-cells (filled bars) and SPL-cells (open bars) were uninfected (CTR) or infected with influenza virus at 1 MOI (left panel) or 10 MOI (right panel). Reverse transcription followed by quantitative real-time PCR was performed to detect the relative mRNA level of IFN-β. […] After 2 days, the level of viral NP and actin was assessed by Western blot analysis.\nas §1"}, "influenza virus [6]": {"tested_on": "influenza virus", "conditions": "cited from earlier work"}}, "note": "Like-named read-outs stand apart in the source and are kept apart here."}
{"compound": "CCCCCCCCCCCCC/C=C/[C@@H](O)[C@H](CO)N(C)C", "note": "[DMS, D-erythro-N,N-dimethylsphingosine]", "values": [{"measurement": "EC50", "setting": "[1]", "result": 4.1, "unit": "µM"}, {"measurement": "influenza virus-induced phosphorylation of RanBP3", "setting": "RanBP3", "result": "blocked influenza virus-induced phosphorylation of RanBP3"}, {"measurement": "influenza virus-induced activation (phosphorylation) of ERK", "setting": "ERK signaling pathway", "result": "suppress influenza virus-induced activation"}, {"measurement": "influenza virus-induced activation (phosphorylation) of p90RSK", "setting": "ERK signaling pathway", "result": "suppress influenza virus-induced activation"}, {"measurement": "weight lost by treated infected mice", "setting": "influenza virus [2]; 10^5 PFU i.n., single dose 0.1 mpk, at 9-10 dpi", "result": "~20", "unit": "%"}, {"measurement": "mortality rate of the infected mice", "setting": "influenza virus [2]; mouse, in vivo, 0.012 mg/kg", "result": "decreased the mortality rate of the infected mice"}, {"measurement": "protection from influenza virus-induced death (lifespan)", "setting": "influenza virus [2]; mouse, in vivo, 0.1 mg/kg", "result": "effectively protected them from influenza virus-induced death"}, {"measurement": "weight loss of the infected mice (morbidity experiment)", "setting": "influenza virus [2]; n=5/group, −15% in CTR", "result": "−7", "unit": "%"}]}
{"compound": "CCCCCCCCc1ccc(CCC(N)(CO)CO)cc1", "note": "[FTY720]", "values": [{"measurement": "synthesis of influenza viral NP", "setting": "influenza virus [3]", "result": "failed to enhance the synthesis of influenza viral NP"}]}
{"compound": "Oc1ccc(Nc2nc(-c3ccc(Cl)cc3)cs2)cc1", "note": "[SKI-II, 4-[4-(4-Chloro-phenyl)-thiazol-2-ylamino]-phenol]", "values": [{"measurement": "EC50", "setting": "[1]; Influenza A virus, MDCK", "result": 2.5, "unit": "µM"}, {"measurement": "expression of measles viral proteins", "setting": "[4]", "result": "inhibited"}, {"measurement": "production of measles virus (viral titers, plaque assay)", "setting": "[4]", "result": "interfered with the production of measles virus"}, {"measurement": "viability of mice infected with influenza virus", "setting": "influenza virus [2]; single dose 0.012 mpk, 5×10^4 PFU, intranasal, 14 days", "result": "increased viability of mice infected with influenza virus"}]}
{"compound": "CCCCCCCCCCCCC/C=C/[C@@H](O)[C@@H](N)CO", "note": "[D-erythro-sphingosine]", "values": [{"measurement": "synthesis of influenza viral NP", "setting": "influenza virus [3]", "result": "failed to enhance the synthesis of influenza viral NP"}]}
{"compound": "JAK inhibitor I", "values": [{"measurement": "NP expression in HEK-cells", "setting": "influenza virus [5]; HEK-cells", "result": "only a little increase of NP expression"}, {"measurement": "expression level of viral NP in SPL-cells", "setting": "influenza virus [5]; SPL-cells", "result": "strongly elevated the expression level of viral NP"}]}
{"compound": "CCCCCCCCCCCCC/C=C/[C@@H](O)[C@@H](N)COP(=O)(O)O", "note": "[S1P, sphingosine-1-phosphate]", "values": [{"measurement": "synthesis of influenza viral NP", "setting": "influenza virus [3]", "result": "failed to enhance the synthesis of influenza viral NP"}]}
{"compound": "CCCCCCCOc1ccc(CC[C@@](C)(N)CO)cc1", "note": "[AAL-R]", "values": [{"measurement": "propagation of influenza virus", "setting": "influenza virus [6]; reference 18", "result": "did not significantly alter the propagation of influenza virus"}, {"measurement": "influenza virus-induced immune pathology", "setting": "influenza virus [6]; references 17, 18", "result": "alleviate influenza virus-induced immune pathology"}]}
